{
  "source": "patent US20070225171A1",
  "about": "(priority 2001, published 2007)",
  "assay_type_in_all_cases": "in vivo, Nicotiana tabacum",
  "key": {"[1]": {"system": "tobacco dark fired cultivar KY 160 (non-GE control)", "experiment": "Yield assay, 2,4-D sprayed on non-transgenic tobacco", "settings": "isooctyl ester formulation; for Plant Yield / Corrected Leaf Yield / Corrected Plant Yield / Leaf Yield: dry matter 21 days after spraying; for Percent Leaf Yield: 21 days after spraying", "protocol": "(§1) The use of exogenously supplied synthetic auxins on agronomic crops to elicit direct non-herbicidal effects, with an emphasis on the potential enhancement of yield, was assessed using genetically-engineered (GE) tobacco plant lines expressing synthetic auxin metabolizing genes. Non-GE controls were used, permitting separation of the herbicidal and biological properties of the exogenously supplied synthetic auxins. Tobacco was utilized to model dry matter yield.\n(§2) The research was conducted in a single phase entailing characterization of response variables when plants were subjected to maximum (1× rate=1 pound/acre of active ingredient) and low (¼×=4 ounces/acre of active ingredient) rates of exogenously applied 2,4-dichlorophenoxyacetic acid (2,4-D). GE lines of tobacco (dark fired cultivar “KY 160”) expressing a synthetic gene for auxin metabolism (SAD1 or SAD2) were used, along with non-GE lines of the same genotype as control material. Commercial tobacco production has long utilized decapitation (“topping”) to initiate a predictable increase in leaf weight, thickness, and dry matter yield. This yield increase is dependent upon variables, such as genotype and fertility. By utilizing controls of the same genotype and a fixed level of fertility, significant yield variation responses should be attributable to the treatment (exogenous auxin herbicide application).\n(§3) The overall experimental design was comprised of three parallel completely randomized designs with spray rate and genotype as the main factors. Three replications were performed for each treatment within each experiment. Each replication was the average measurement of six plants. The tobacco lines were allowed to advance to the 6-8 leaf stage. Upon reaching this stage, the primary meristem was removed along with lower leaves so that only 4 leaves remained. Plants were then sprayed with herbicide and permitted to grow for an additional 21 days. At the end of this period, dry matter yields for both leaf and the whole plant were measured.\n(§4) Yield data recorded for tobacco were leaf dry matter, leaf number, and total dry matter. Corrected plant yield and corrected leaf yield were calculated for each replication as the leaf dry matter divided by leaf number then multiplied by the expected number of leaves (6 plants×4 leaves=24). This corrected leaf yield was then added to stem yield fraction (arrived at by subtracting actual leaf yield from total plant yield) to create a corrected total plant yield. All tobacco yield measurements were recorded in grams after a 7-day drying period in ambient air dryers.\n(§5) Seed of non-transgenic tobacco lines were germinated on MS03 (MS salts, B5 vitamins, 3% sucrose) medium. Transgenic seeds were germinated on the same medium augmented with 300 mg/L kanamycin monosulfate to allow detection of any seedlings failing to carry the transgene. Thirty days after germination, seedlings were transplanted to the greenhouse into flats holding 8 trays of 6 plants each for a total of 48 plants. Plants were permitted to grow for approximately 45 days, at which time 6-8 leaves had developed. Prior to spraying, the top of the plant retaining the uppermost two leaves was removed (decapitated) resulting in the retention of 4 fully-extended leaves for each plant.\n(§6) For spray assays and for the yield studies, spraying was performed in an Allen Machine Works Spray Cabinet. Spray rates were established as the equivalent of 16 ounces of active ingredient per acre (1× rate), 4 ounces active ingredient/acre (¼× rate), and the control (no active ingredient per acre or 0×). The herbicide used was 2,4-D, isooctyl ester formulation (3.9 pounds of active ingredient/gallon) at equivalent rates noted above. To achieve this equivalent 1× field rate, 500 microliters of herbicide were diluted into a total volume of 50 ml. The ¼× field rate was achieved by diluting 125 microliters of herbicide in a 50 ml volume. […]"}, "[2]": {"system": "SAD1 - Cultivar KY 160 genetically engineered to express a synthetic gene for tolerance to phenoxy herbicides", "experiment": "Yield assay, 2,4-D sprayed on transgenic SAD1 tobacco", "settings": "for Plant Yield / Percent Leaf Yield / Corrected Leaf Yield / Corrected Plant Yield / Leaf Yield: SAD1 tobacco, isooctyl ester formulation; for Plant Yield / Corrected Leaf Yield / Corrected Plant Yield / Leaf Yield: dry matter 21 days after spraying; for Percent Leaf Yield: 21 days after spraying", "protocol": "as §1, §2, §3, §4, §5, §6"}, "[3]": {"system": "SAD2 - Cultivar KY 160 genetically engineered to express a modified version of the SAD1 synthetic gene", "experiment": "Yield assay, 2,4-D sprayed on transgenic SAD2 tobacco", "settings": "for Plant Yield / Percent Leaf Yield / Corrected Leaf Yield / Corrected Plant Yield / Leaf Yield: SAD2 tobacco, isooctyl ester formulation; for Plant Yield / Corrected Leaf Yield / Corrected Plant Yield / Leaf Yield: dry matter 21 days after spraying; for Percent Leaf Yield: 21 days after spraying", "protocol": "as §1, §2, §3, §4, §5, §6"}, "[4]": {"settings": "2,4-D rate 1X (1 pound active ingredient/acre)"}, "[5]": {"settings": "2,4-D rate ¼X (4 ounces active ingredient/acre)"}},
  "data": [
    {"molecule": "O=C(O)COc1ccc(Cl)cc1Cl", "note": "[2,4-D, 2,4-dichlorophenoxyacetic acid]", "values": [
      {"measurement": "Plant Yield", "setting": "[1]; [4]", "result": "27.7 grams/plant/replication/treatment"},
      {"measurement": "Percent Leaf Yield", "setting": "[1]; 2,4-D rate 1X", "result": 33.2, "unit": "%"},
      {"measurement": "Corrected Leaf Yield", "setting": "[1]; 2,4-D rate 1X", "result": "9.4 grams/plant/replication/treatment"},
      {"measurement": "Corrected Plant Yield", "setting": "[1]; 2,4-D rate 1X", "result": "28.2 grams/plant/replication/treatment"},
      {"measurement": "Leaf Yield", "setting": "[1]; 2,4-D rate 1X", "result": "9.0 grams/plant/replication/treatment"},
      {"measurement": "Plant Yield", "setting": "[1]; [5]", "result": "33.1 grams/plant/replication/treatment"},
      {"measurement": "Percent Leaf Yield", "setting": "[1]; 2,4-D rate ¼X", "result": 35.2, "unit": "%"},
      {"measurement": "Corrected Leaf Yield", "setting": "[1]; 2,4-D rate ¼X", "result": "12.2 grams/plant/replication/treatment"},
      {"measurement": "Corrected Plant Yield", "setting": "[1]; 2,4-D rate ¼X", "result": "34.3 grams/plant/replication/treatment"},
      {"measurement": "Leaf Yield", "setting": "[1]; 2,4-D rate ¼X", "result": "11.0 grams/plant/replication/treatment"},
      {"measurement": "Plant Yield", "setting": "[2]; [4]", "result": "42.5 grams/plant/replication/treatment"},
      {"measurement": "Percent Leaf Yield", "setting": "[2]; 2,4-D rate 1X", "result": 44.7, "unit": "%"},
      {"measurement": "Corrected Leaf Yield", "setting": "[2]; 2,4-D rate 1X", "result": "19.1 grams/plant/replication/treatment"},
      {"measurement": "Corrected Plant Yield", "setting": "[2]; 2,4-D rate 1X", "result": "42.7 grams/plant/replication/treatment"},
      {"measurement": "Leaf Yield", "setting": "[2]; 2,4-D rate 1X", "result": "18.8 grams/plant/replication/treatment"},
      {"measurement": "Plant Yield", "setting": "[2]; [5]", "result": "43.5 grams/plant/replication/treatment"},
      {"measurement": "Percent Leaf Yield", "setting": "[2]; 2,4-D rate ¼X", "result": 40.5, "unit": "%"},
      {"measurement": "Corrected Leaf Yield", "setting": "[2]; 2,4-D rate ¼X", "result": "17.8 grams/plant/replication/treatment"},
      {"measurement": "Corrected Plant Yield", "setting": "[2]; 2,4-D rate ¼X", "result": "43.9 grams/plant/replication/treatment"},
      {"measurement": "Leaf Yield", "setting": "[2]; 2,4-D rate ¼X", "result": "17.4 grams/plant/replication/treatment"},
      {"measurement": "effect on yield", "setting": "[2]; transgenic material (SAD1) sprayed with either the ¼× or 1× rate", "result": "significant increase in yield"},
      {"measurement": "Plant Yield", "setting": "[3]; [4]", "result": "48.8 grams/plant/replication/treatment"},
      {"measurement": "Percent Leaf Yield", "setting": "[3]; 2,4-D rate 1X", "result": 42.2, "unit": "%"},
      {"measurement": "Corrected Leaf Yield", "setting": "[3]; 2,4-D rate 1X", "result": "21.6 grams/plant/replication/treatment"},
      {"measurement": "Corrected Plant Yield", "setting": "[3]; 2,4-D rate 1X", "result": "51.0 grams/plant/replication/treatment"},
      {"measurement": "Leaf Yield", "setting": "[3]; 2,4-D rate 1X", "result": "19.4 grams/plant/replication/treatment"},
      {"measurement": "Plant Yield", "setting": "[3]; [5]", "result": "43.9 grams/plant/replication/treatment"},
      {"measurement": "Percent Leaf Yield", "setting": "[3]; 2,4-D rate ¼X", "result": 42.2, "unit": "%"},
      {"measurement": "Corrected Leaf Yield", "setting": "[3]; 2,4-D rate ¼X", "result": "19.1 grams/plant/replication/treatment"},
      {"measurement": "Corrected Plant Yield", "setting": "[3]; 2,4-D rate ¼X", "result": "45.2 grams/plant/replication/treatment"},
      {"measurement": "Leaf Yield", "setting": "[3]; 2,4-D rate ¼X", "result": "17.8 grams/plant/replication/treatment"},
      {"measurement": "effect on yield", "setting": "[3]; transgenic material (SAD2) sprayed with either the ¼× or 1× rate", "result": "significant increase in yield"}
    ]}
  ]
}
